# Test system: MAPK phosphorylation in PANC-1 pancreatic cancer cell line
# Assay: MAPK cell-based phosphorylation assay (cell-direct ELISA, EGF stimulation)
# Settings: Homo sapiens
# Description: Cell lines: Tumor-derived pancreatic cancer cell lines PANC-1 were purchased from ATCC and were maintained according to ATCC recommendation.
# Method: Cells were plated at 7500 cells/well density in 96-wells plate, starved over night, and the small molecules to be tested were added to the cells in the final concentration of 30 μM with 0.3% DMSO for 6 hours incubation at 37° C. For IC50 value determination, serial dilutions of compounds were added to cells under the same conditions. Next, cells were stimulated with 1.5 ng/ml EGF for 15 min. followed by cell fixation with 4% Formaldehyde in PBS at RT for 20 min. Phosphorylation level of MAPK was determined by Cell-direct ELISA.
# Cell-direct ELISA: For each well, cells were permeabilized with PBS-Triton 0.1%, quenched with H2O2 0.6% in PBS-Triton 0.1%, and probed with anti-phospho-MAPK antibodies (R&D Systems) followed by HRP-conjugated secondary antibody (Jackson Immunoresearch, West Grove, Pa.). Next, a solution 50 μM of the fluorescent substrate AmpliFlu Red (Sigma) was added and incubated at RT for 20 min. At the end of the incubation time, fluorescence was measured at 595 nm on a microplate reader (AF2200; Eppendorf, Inc., Hamburg, Germany).
row,IC50,SMILES
1,2 to 10 µM,Oc1nc(-c2ccccn2)nc2scc(Br)c12 [drawing 1080]
2,< 2 µM,Oc1nc(-c2ccccn2)nc2c(-c3ccccc3)csc12 [drawing 1074]
3,> 30 µM,Cc1ccccc1N1CCN(C(=O)c2csc3c(O)nc(-c4ccccn4)nc23)CC1 [drawing 1123]
4,> 30 µM,COc1cccc(N2CCN(C(=O)c3csc4c(O)nc(-c5ccccn5)nc34)CC2)c1 [drawing 1118]
5,> 30 µM,Oc1nc(-c2ccccn2)nc2c(-c3cc(Cl)cc(Cl)c3)csc12 [drawing 1192]
6,2 to 10 µM,O=C(CN1CCN(c2nc(-c3ccccn3)nc3sc(-c4ccccc4)cc23)CC1)N1CCCC1 [drawing 1091]

row,SMILES,IC50
1,Oc1nc(-c2ccccn2)nc2c(-c3ccccc3F)csc12 [drawing 1207],2 to 10 µM
2,COCc1ccc(-c2csc3c(O)nc(-c4ccccn4)nc23)cc1F [drawing 1190],2 to 10 µM
3,O=C(c1csc2c(O)nc(-c3ccccn3)nc12)N1CCN(Cc2cccc(O)c2)CC1 [drawing 1125],> 30 µM
4,Oc1nc(-c2ccccn2)nc2c(-c3ccsc3)csc12 [drawing 1214],< 2 µM

# Same assay, conditions: Homo sapiens, * = tested at 10 μM
row,SMILES,inhibition at 10 µM
1,COCCNc1nc(-c2cn(C)cn2)nc2sc(-c3ccncc3)c(-c3ccccc3)c12 [drawing 1290],0%
2,Oc1nc(-c2ccccn2)nc2c(-c3ccccc3F)csc12 [drawing 1207],76 to 100%
3,COCC(C)Nc1nc(-c2nccn2C)nc2sc(-c3ccccc3)c(-c3ccccc3)c12 (stereo not shown) [drawing 1337],76 to 100%
4,O=C(CCn1ccnc1)Nc1nc(-c2ccccn2)nc2sccc12 [drawing 1226],1 to 25%
5,CN(C)CCOc1cccc(-c2csc3c(O)nc(-c4ccccn4)nc23)c1 [drawing 1253],76 to 100%
6,COCCNc1nc(-c2nccn2C)nc2sc(C3CCOCC3)c(-c3ccccc3)c12 [drawing 1350],51 to 75%
7,Oc1nc(-c2ccccn2)nc2c(C3CCC3)csc12 [drawing 1250],76 to 100%
8,COc1cnc(CNC(=O)c2csc3c(O)nc(-c4ccccn4)nc23)[nH]c1=O [drawing 1280],0%
9,Oc1nc(-c2ccccn2)nc2cc(-c3cccc(Br)c3)sc12 [drawing 1324],25 to 50%
10,CC(C)(C)c1sc2c(O)nc(-c3ccccn3)nc2c1Br [drawing 1314],1 to 25%
11,COCc1ccc(-c2csc3c(O)nc(-c4ccccn4)nc23)cc1F [drawing 1190],76 to 100%
12,Nc1nc(-c2ccccn2)nc2c(Br)csc12 [drawing 1229],25 to 50%
13,Cc1sc2c(O)nc(-c3nccn3C)nc2c1-c1ccc(OCC(C)C)nc1 [drawing 1360],25 to 50%
14,Oc1nc(-c2ccncn2)nc2c(-c3cccc(C(F)(F)F)c3)csc12 [drawing 1367],1 to 25%
15,COc1ccnc(-c2nc(O)c3c(C(F)(F)F)csc3n2)c1 [drawing 1186],1 to 25%
16,Oc1nc(-c2ccccn2)nc2c(CC3CNC3)csc12 [drawing 1279],0%
17,Oc1nc(-c2ccccn2)nc2c(-c3cc(Cl)cc(Cl)c3)csc12 [drawing 1192],1 to 25%
18,COc1cccc(-c2csc3c(O)nc(-c4ccccn4)nc23)c1 [drawing 1211],1 to 25%
19,Oc1nc(-c2ccccn2)nc2c(-c3ccnn3-c3ccccn3)csc12 [drawing 1240],1 to 25%
20,COc1ccc(-c2c(-c3ccccc3)sc3c(O)nc(-c4nccn4C)nc23)cn1 [drawing 1353],51 to 75%

row,SMILES,inhibition at 10 µM
1,Cc1sc2c(O)nc(-c3ccccn3)nc2c1-c1ccccc1Cl [drawing 1275],76 to 100%
2,Oc1nc(-c2ccccn2)nc2c(-c3ccc(OC4CCCCC4)cc3)csc12 [drawing 1224],25 to 50%
3,O=C(c1cc2nc(-c3ccccn3)nc(O)c2s1)N1CCN(c2ccccc2)CC1 [drawing 1188],1 to 25%
4,O=c1[nH]c(-c2ccccn2)nc2c([C@@H]3O[C@H](CO)[C@@H](O)[C@H]3O)csc12 [drawing 1287],1 to 25%
5,COc1nc(-c2ccccn2)nc2c1c(-c1ccccc1)nn2-c1ccccn1 [drawing 1300],25 to 50%
6,Cn1ccnc1-c1nc(O)c2scc(-c3ccc(C(C)(C)C)cc3)c2n1 [drawing 1379],25 to 50%
7,Nc1nc(-c2ccccn2)nc2c(-c3ccccn3)csc12,76 to 100%
8,Oc1nc(-c2ccccn2)nc2c(C3CC3)csc12 [drawing 1278],51 to 75%
9,Oc1nc(-c2ccccn2)nc2c1c(-c1ccccc1)nn2-c1ccccn1 [drawing 1299],0%
10,Nc1nc(O)c2sc(-c3cccc(C(=O)N4CCC(O)C4)c3)cc2n1 (stereo not shown) [drawing 1303],0%
11,CC(C)(O)c1ccc(-c2csc3c(O)nc(-c4ccccn4)nc23)c(F)c1 [drawing 1219],76 to 100%
12,Cn1ccnc1-c1nc(NCCOC(F)(F)F)c2c(-c3ccccc3)c(-c3ccccc3)sc2n1 [drawing 1328],76 to 100%
13,COCCNc1nc(-c2ccccn2)nc(-c2cccc(OCCN(C)C)c2)c1Oc1ccccc1 [drawing 1289],25 to 50%
14,Oc1nc(-c2ccccn2)nc2c(-c3ccsc3)csc12 [drawing 1214],76 to 100%
15,COc1cnc(CNC(=O)c2c(C)sc3c(O)nc(-c4ccccn4)nc23)[nH]c1=O [drawing 1283],0%
16,Cn1ccnc1-c1nc(O)c2sc(-c3ccccc3)c(-c3cccc(C(F)(F)F)c3)c2n1 [drawing 1352],0%
17,Oc1nc(-c2ccccn2)nc2c(-c3cc(CN4CCCC4)ccc3F)csc12 [drawing 1263],0%
18,COc1ccc(F)cc1-c1csc2c(O)nc(-c3ccccn3)nc12 [drawing 1213],25 to 50%
19,COCCN(C)c1nc(-c2nccn2C)nc2sc(-c3ccccc3)c(-c3ccccc3)c12 [drawing 1326],76 to 100%
20,COc1cnc(-c2cn(C)cn2)nc1O [drawing 1257],51 to 75%

# Same assay, conditions: Homo sapiens, at 30 μM
row,SMILES,inhibition at 30 µM
1,COc1ccccc1C1CN(C(=O)c2csc3c(O)nc(-c4ccccn4)nc23)CCO1 (stereo not shown) [drawing 1148],1 to 25%
2,NC(=O)C1CCN(c2nc(-c3ccccn3)nc3scc(-c4ccccc4)c23)CC1 [drawing 1111],1 to 25%
3,COc1ccc(N2CCN(C(=O)c3csc4c(O)nc(-c5ccccn5)nc34)CC2)cc1O [drawing 1164],1 to 25%
4,O=S1(=O)CCC(N2CCN(c3nc(-c4ccccn4)nc4scc(-c5ccccc5)c34)CC2)C1 (stereo not shown) [drawing 1093],1 to 25%
5,O=[N+]([O-])c1cc(C(F)(F)F)ccc1Sc1nc2c(c(C(F)(F)F)n1)CCCC2,1 to 25%
6,Cc1cnc(-c2ccccn2)nc1NC(=O)Cc1ccc(C#N)cc1 [drawing 1173],51 to 75%
7,COc1cc(N2CCN(C(=O)c3csc4c(O)nc(-c5ccccn5)nc34)CC2)cc(OC)c1OC [drawing 1141],1 to 25%
8,Oc1nc(-c2ccccn2)nc2scc(Br)c12 [drawing 1080],76 to 100%
9,Oc1nc(-c2ccccn2)nc2c(-c3ccccc3)csc12 [drawing 1074],76 to 100%
10,CC(Oc1ccc(C(=O)Nc2nnc(-c3ccccn3)[nH]2)cn1)c1ccccc1 (stereo not shown) [drawing 1014],25 to 50%
11,Cc1ccccc1N1CCN(C(=O)c2csc3c(O)nc(-c4ccccn4)nc23)CC1 [drawing 1123],25 to 50%
12,COc1cccc(N2CCN(C(=O)c3csc4c(O)nc(-c5ccccn5)nc34)CC2)c1 [drawing 1118],76 to 100%
13,Oc1ccc(C2(c3cccc(Cl)c3)CCCC2)cc1 [drawing 1047],76 to 100%
14,Nc1nc(-c2ccccn2)nc2scc(-c3ccccc3)c12 [drawing 1181],1 to 25%
15,O=C(Nc1nnc(-c2ccccn2)[nH]1)C1CCCC(C(F)(F)F)C1 (stereo not shown) [drawing 1017],51 to 75%
16,COc1ccccc1N1CCN(C(=O)c2csc3c(O)nc(-c4ccccn4)nc23)CC1 [drawing 1117],1 to 25%
17,O=C(c1csc2c(O)nc(-c3ccccn3)nc12)N1CCN(Cc2ccc(O)cc2)CC1 [drawing 1146],25 to 50%
18,Cc1nnc(C(Nc2nc(-c3ccccn3)nc3scc(-c4ccccc4)c23)c2ccccc2)n1C (stereo not shown) [drawing 1084],51 to 75%

row,SMILES,inhibition at 30 µM
1,O=C(Cc1cccc(F)c1)Nc1nc(-c2ccccn2)cs1 [drawing 1033],1 to 25%
2,O=C(c1csc2c(O)nc(-c3ccccn3)nc12)N1CCN(Cc2cccc(O)c2)CC1 [drawing 1125],51 to 75%
3,O=C(c1csc2c(O)nc(-c3ccccn3)nc12)N1CCN(c2ccccc2F)CC1 [drawing 1121],1 to 25%
4,CCCOc1ccc2ccccc2c1CN(C)S(=O)(=O)N1CC(C)OC(C)C1 (stereo not shown) [drawing 1051],1 to 25%
5,CC(=O)N1CCN(c2nc(-c3ccccn3)nc3scc(-c4ccccc4)c23)CC1 [drawing 1109],25 to 50%
6,O=C(C1CCN(c2nc(-c3ccccn3)nc3scc(-c4ccccc4)c23)CC1)N1CCCCC1 [drawing 1105],1 to 25%
7,O=C(c1csc2c(O)nc(-c3ccccn3)nc12)N1CCC(N2CCOCC2)CC1 [drawing 1067],1 to 25%
8,O=C(CN1CCN(c2nc(-c3ccccn3)nc3sc(-c4ccccc4)cc23)CC1)N1CCCC1 [drawing 1091],76 to 100%
9,COc1ccc(CN2CCN(C(=O)c3csc4c(O)nc(-c5ccccn5)nc34)CC2)cc1 [drawing 1124],1 to 25%
10,O=C(c1csc2c(O)nc(-c3ccccn3)nc12)N1CCN(c2cccc(F)c2)CC1 [drawing 1137],1 to 25%
11,COCCCCNC(=O)c1csc2nc(-c3ccccn3)nc(N3CCN(C)CC3)c12 [drawing 1131],1 to 25%
12,N#Cc1ccc(CC(=O)Nc2nc(-c3ccccn3)nc3sccc23)cc1 [drawing 1176],76 to 100%
13,COCCC(C)Nc1nc(-c2ccccn2)nc2sccc12 (stereo not shown) [drawing 1115],25 to 50%
14,COC(=O)c1ccc(C(=O)NCC2(c3ccccc3OC)CCCC2)nc1 [drawing 1048],1 to 25%
15,O=S(=O)(Oc1cc(C(F)(F)F)cc(C(F)(F)F)c1)N1CCc2ccccc2C1 [drawing 1052],1 to 25%
16,O=C(NCCc1cccnc1)c1csc2c(O)nc(-c3ccccn3)nc12 [drawing 1071],1 to 25%
17,Cc1cnc(-c2ccccn2)nc1NC(=O)C(C)c1ccc(C#N)cc1 (stereo not shown) [drawing 1160],1 to 25%
